For one assay, the target named is rα4β4 nAChR (Rattus norvegicus, UniProt P09483+P12392). As to the kind of experiment: cell-based.
For the next assay, the target named is rα2β4 nAChR (Rattus norvegicus, UniProt P12389+P12392). As to the kind of experiment: cell-based.
Assay [1] concerns the target T1, rα6/α3β4 nAChR (Rattus norvegicus, UniProt P04757+P12392+P43143). The assay is classed as cell-based.
For a further assay, the target named is rα7 nAChR (Rattus norvegicus, UniProt Q05941). As to the kind of experiment: cell-based.
Another assay deals with rα9α10 nAChR (Rattus norvegicus, UniProt P43144+Q9JLB5). The experiment in a line: cell-based.
For assay [2], the target named is T2, rα6/α3β2β3 nAChR (Rattus norvegicus, UniProt P04757+P12390+P43143). The class given is cell-based.
Another assay concerns the target hα6/α3β2β3 nAChR (Homo sapiens, UniProt P17787+P32297+Q05901+Q15825). As to the kind of experiment: cell-based.
The target of a further assay is hα3β4 nAChR (Homo sapiens, UniProt P30926+P32297). As to the kind of experiment: cell-based.
The target of the next assay is hα6/α3β4 nAChR (Homo sapiens, UniProt P30926+P32297+Q15825). The experiment in a line: cell-based.
A further assay addresses hα4β2 nAChR (Homo sapiens, UniProt P17787+P43681). As to the kind of experiment: cell-based.
Another assay addresses rα4β2 nAChR (Rattus norvegicus, UniProt P09483+P12390). As to the kind of experiment: cell-based. The class given is cell-based.
The target of the next assay is rα3β2 nAChR (Rattus norvegicus, UniProt P04757+P12390). The experiment in a line: cell-based.
In assay [3] the target is T1, rα6/α3β4 nAChR. As to the kind of experiment: cell-based.
For the next assay, the target named is rα3β4 nAChR (Rattus norvegicus, UniProt P04757+P12392). As to the kind of experiment: cell-based.
A further assay addresses rα2β2 nAChR (Rattus norvegicus, UniProt P12389+P12390). As to the kind of experiment: cell-based.
The next assay addresses rα6β4 nAChR (Rattus norvegicus, UniProt P12392+P43143). As to the kind of experiment: cell-based.
For assay [4], the target named is T2, rα6/α3β2β3 nAChR. The experiment in a line: cell-based.
Where [5] appears, read: read-out: inhibition of ACh-evoked current.

Bridge positions count the residues as written; N and C are the ends. Peptide text beside a SMILES is read from it.

T2 sequence (P43143 31-237 limits assumed): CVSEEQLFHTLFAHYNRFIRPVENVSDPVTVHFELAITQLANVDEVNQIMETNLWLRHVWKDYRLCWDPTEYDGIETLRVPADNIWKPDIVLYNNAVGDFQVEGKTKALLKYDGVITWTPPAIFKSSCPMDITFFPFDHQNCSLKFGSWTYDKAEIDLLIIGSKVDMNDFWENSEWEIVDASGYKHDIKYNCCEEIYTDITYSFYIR
T2 sequence (P04757 233-499 limits assumed): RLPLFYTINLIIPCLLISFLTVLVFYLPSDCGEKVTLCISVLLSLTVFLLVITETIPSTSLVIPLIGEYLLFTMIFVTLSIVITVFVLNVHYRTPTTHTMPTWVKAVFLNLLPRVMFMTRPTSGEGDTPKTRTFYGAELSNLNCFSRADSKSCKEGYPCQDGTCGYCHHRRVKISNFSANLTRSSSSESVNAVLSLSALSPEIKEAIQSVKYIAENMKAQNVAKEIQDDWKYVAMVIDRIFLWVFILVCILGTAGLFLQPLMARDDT
T2 sequence (P12390 25-500 limits assumed): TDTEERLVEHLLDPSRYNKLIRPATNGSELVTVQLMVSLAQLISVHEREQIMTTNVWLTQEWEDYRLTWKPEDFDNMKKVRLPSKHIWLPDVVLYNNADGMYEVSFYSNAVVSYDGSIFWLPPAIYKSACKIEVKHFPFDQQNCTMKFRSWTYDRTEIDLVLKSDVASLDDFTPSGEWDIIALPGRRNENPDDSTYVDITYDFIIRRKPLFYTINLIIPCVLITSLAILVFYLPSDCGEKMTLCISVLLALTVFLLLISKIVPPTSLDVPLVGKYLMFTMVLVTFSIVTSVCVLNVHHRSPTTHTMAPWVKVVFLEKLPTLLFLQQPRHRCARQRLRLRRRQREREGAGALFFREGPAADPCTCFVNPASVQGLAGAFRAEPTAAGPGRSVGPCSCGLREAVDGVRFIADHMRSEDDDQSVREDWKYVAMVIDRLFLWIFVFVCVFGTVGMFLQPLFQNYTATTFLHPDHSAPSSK
T1 sequence (P43143 31-237 limits assumed): as the sequence (P43143 31-237 limits assumed) above
T1 sequence (P04757 233-499 limits assumed): as the sequence (P04757 233-499 limits assumed) above
T1 sequence (P12392 22-495 limits assumed): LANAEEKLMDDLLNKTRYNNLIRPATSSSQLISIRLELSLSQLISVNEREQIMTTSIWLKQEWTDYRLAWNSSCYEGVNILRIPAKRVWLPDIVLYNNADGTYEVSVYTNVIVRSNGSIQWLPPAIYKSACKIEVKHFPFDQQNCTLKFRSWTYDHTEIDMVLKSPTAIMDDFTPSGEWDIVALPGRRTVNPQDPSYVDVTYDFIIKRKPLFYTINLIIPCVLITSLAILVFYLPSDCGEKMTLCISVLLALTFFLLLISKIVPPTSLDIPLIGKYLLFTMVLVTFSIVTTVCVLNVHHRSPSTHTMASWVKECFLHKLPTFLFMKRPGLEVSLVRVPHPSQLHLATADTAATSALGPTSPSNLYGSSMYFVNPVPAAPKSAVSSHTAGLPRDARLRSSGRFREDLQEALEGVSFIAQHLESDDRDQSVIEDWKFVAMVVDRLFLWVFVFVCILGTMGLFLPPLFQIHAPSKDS
Sequence of rα3β4 nAChR (P04757 26-499 limits assumed): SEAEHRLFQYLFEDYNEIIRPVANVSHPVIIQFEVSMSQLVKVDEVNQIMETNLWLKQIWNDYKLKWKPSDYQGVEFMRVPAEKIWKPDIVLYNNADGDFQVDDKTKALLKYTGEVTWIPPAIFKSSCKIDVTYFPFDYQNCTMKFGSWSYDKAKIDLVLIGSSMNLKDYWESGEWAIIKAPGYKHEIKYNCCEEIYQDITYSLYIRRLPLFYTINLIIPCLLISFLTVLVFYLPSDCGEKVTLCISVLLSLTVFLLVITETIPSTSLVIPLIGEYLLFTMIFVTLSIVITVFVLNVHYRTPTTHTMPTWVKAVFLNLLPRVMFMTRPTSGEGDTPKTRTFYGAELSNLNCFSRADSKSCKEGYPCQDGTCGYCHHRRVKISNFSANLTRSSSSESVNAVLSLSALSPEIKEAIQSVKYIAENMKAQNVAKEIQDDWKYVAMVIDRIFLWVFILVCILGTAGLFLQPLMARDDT
Sequence of rα3β4 nAChR (P12392 22-495 limits assumed): as the sequence (P12392 22-495 limits assumed) above
Sequence of rα4β2 nAChR (P09483 31-630 limits assumed): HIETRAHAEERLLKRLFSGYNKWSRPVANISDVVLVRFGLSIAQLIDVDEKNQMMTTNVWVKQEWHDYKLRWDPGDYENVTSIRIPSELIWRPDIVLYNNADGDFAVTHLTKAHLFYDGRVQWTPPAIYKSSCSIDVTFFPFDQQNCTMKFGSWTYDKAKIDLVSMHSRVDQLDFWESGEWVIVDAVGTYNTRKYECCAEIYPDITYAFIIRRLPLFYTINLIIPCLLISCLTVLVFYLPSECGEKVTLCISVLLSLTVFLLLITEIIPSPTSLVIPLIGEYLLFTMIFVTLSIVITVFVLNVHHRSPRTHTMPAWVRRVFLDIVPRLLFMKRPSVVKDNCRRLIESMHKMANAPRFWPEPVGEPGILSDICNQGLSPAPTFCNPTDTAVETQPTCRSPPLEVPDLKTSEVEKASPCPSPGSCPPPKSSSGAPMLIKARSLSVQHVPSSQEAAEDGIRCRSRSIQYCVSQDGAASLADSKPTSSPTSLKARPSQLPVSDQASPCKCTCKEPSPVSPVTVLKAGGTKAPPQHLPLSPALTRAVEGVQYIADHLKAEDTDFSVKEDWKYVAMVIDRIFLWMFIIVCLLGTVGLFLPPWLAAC
Sequence of rα4β2 nAChR (P12390 25-500 limits assumed): as the sequence (P12390 25-500 limits assumed) above
Sequence of rα6β4 nAChR (P43143 31-493 limits assumed): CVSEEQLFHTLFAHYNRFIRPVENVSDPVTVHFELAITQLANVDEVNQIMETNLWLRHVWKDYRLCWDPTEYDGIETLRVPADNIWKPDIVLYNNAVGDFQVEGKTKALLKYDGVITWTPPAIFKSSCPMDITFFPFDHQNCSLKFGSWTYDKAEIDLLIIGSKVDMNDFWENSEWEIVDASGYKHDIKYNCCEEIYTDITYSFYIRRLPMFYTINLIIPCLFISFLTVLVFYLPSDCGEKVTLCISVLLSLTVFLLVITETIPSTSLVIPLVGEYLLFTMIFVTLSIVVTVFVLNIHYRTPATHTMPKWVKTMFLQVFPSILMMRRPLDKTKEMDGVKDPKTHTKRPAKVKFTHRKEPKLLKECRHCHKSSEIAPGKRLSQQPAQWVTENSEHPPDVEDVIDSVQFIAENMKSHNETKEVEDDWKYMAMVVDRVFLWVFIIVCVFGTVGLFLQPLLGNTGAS
Sequence of rα6β4 nAChR (P12392 22-495 limits assumed): as the sequence (P12392 22-495 limits assumed) above

By IC50 is commonly meant the concentration at which inhibition is half-maximal. A low value points to higher potency. For orientation: koff means the rate constant with which the complex falls apart. The kon is the second-order rate constant of association. The low end stands for slower complex formation, the high end for faster complex formation. For orientation: inhibition means the share of the control response that was lost under treatment. For the molecule `CC(C)[C@@H]1NC(=O)[C@@H]2CCCN2C(=O)[C@H](Cc2c[nH]cn2)NC(=O)[C@H](CO)NC(=O)[C@@H]2CSSC[C@@H](C(=O)NCC(N)=O)NC(=O)[C@H](CC(N)=O)NC(=O)[C@@H]3CCCN3C(=O)[C@H](CC(N)=O)NC(=O)[C@H](CCCCN)NC(=O)[C@H]([C@@H](C)O)NC(=O)[C@H](Cc3ccc(O)cc3)NC(=O)[C@H](CSSC[C@H](NC(=O)CNC(=O)CN)C(=O)N2)NC1=O` [VnIB] (H-GGCCSHPVCYTKNPNCG-NH2; disulfide 3-9, 4-16), the IC50 on rα4β4 nAChR, at rα2β4 nAChR, on rα7 nAChR, at rα9α10 nAChR, against hα6/α3β2β3 nAChR and on hα3β4 nAChR was more than 10 µM throughout. The IC50 against hα6/α3β4 nAChR was 0.0053 µM; against hα4β2 nAChR it was more than 10 µM; on rα4β2 nAChR, more than 10 µM; against rα3β2 nAChR, more than 10 µM; against rα3β4 nAChR, 0.32 µM; against rα2β2 nAChR it was more than 10 µM. Moreover, the IC50 turned out to be 0.012 µM against rα6β4 nAChR and 4 µM at rα6/α3β2β3 nAChR [4]. The “reduction of ACh-evoked currents” value on rα6/α3β4 nAChR [1] is given as ~ 85%; on rα6/α3β2β3 nAChR [2], ~ 10%. Further, the “effect on ACh-evoked response” value on rα4β2 nAChR is listed as “no significant effect”. At rα6/α3β4 nAChR [3], this molecule had a koff of 0.00437 s⁻¹. The molecule also gave a kon at rα6/α3β4 nAChR [3] of 420000 M⁻¹ s⁻¹. For the same molecule, the figures for the inhibition at 1 µM on rα3β4 nAChR (setting [5]) and at rα6/α3β2β3 nAChR [4] (setting [5]) were 80% and 23%, respectively.

The values above are taken from PMC6693646 (Neuropharmacology, 2019).
